# Data taken from US5859012A, “Inhibitors of farnesyl-protein transferase” (Merck & Co., Inc., priority 1997, dated 1999).
# Where a name gives a salt, the structure may show the parent alone.
# Molecular target: T1, human FPTase (Homo sapiens, UniProt P49354+P49356)
# T1 construct: made in house
# Assay: In vitro inhibition of ras farnesyl transferase (human FPTase assay, [3H]-FPP incorporation into Ras-CVIM)
# Format: biochemical
# Conditions: 100 nM Ras-CVIM, 30 min, read-out: IC50, inhibitory activity against human FPTase
row,Structure (SMILES),IC50
1,"N#Cc1ccc(Cn2cncc2CN2CCN(c3cccc(Cl)c3)C(=O)C2=O)cc1 [Example 1, 4-[1-(4-Cyanobenzyl)-5-imidazolylmethyl]-1-(3-chlorophenyl)-piperazine-2,3-dione hydrochloride]",≤ 10 µM
2,"CCCC[C@H]1CN(c2cccc(C)c2C)C(=O)C(=O)N1Cc1cncn1Cc1ccc(C#N)cc1 [Example 2, (S)-5-n-butyl-4-[1-(4-cyanobenzyl)-5-imidazolylmethyl]-1-(2,3-dimethylphenyl)-2,3-piperazinedione hydrochloride]",≤ 10 µM
